Earlier results in patent US20110195928A1, “Administration of Copper to an Animal” (priority 2001, published 2011).

Settings: general statement of the description

- Solubility in water: insoluble
Substance: copper edtate [edtates]
